# Assay results as given in ChEMBL document CHEMBL5537197, “Discovery of Novel Coumarin-quinolinium Derivatives as Pan-KRAS Translation Inhibitors by Targeting 5'-UTR RNA G-Quadruplexes” (J Med Chem, 2024).
# The source made the active and inactive calls. No cut-off for these calls is given here.
# What was measured:
# [1] = system: Quadruplex DNA; test: Binding affinity to TERRA G-Quadruplex (unknown origin) assessed as melting temperature at 25 uM at 25 to 95 degreeC by CD spectroscopy (reference value: 84.2 degreeC); format: nucleic-acid assay
# [2] = system: GTPase KRas (Homo sapiens), P01116 [G12D]; test: Inhibition of KRAS G12D mutant in human PANC-1 cells incubated for 24 hrs by Western blot analysis; format: cell-based; settings: dose <= 5.0 µM
# GTPase KRas (Homo sapiens), P01116 [G12D], sequence (P01116 whole entry G12D, looked up): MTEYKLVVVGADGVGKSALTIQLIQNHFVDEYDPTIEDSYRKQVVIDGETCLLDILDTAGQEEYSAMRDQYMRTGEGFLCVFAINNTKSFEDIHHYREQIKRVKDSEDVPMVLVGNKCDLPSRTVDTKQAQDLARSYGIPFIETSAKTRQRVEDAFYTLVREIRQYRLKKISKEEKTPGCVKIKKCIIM
# [3] = system: MIA PaCa-2; test: Antitumor activity against human MIA PaCa-2 cells xenografted in BALB/C-nu/nu mouse model assessed as reduction in tumor weight at 2.5 to 5 mg/kg,ip everyday for 18 days; format: functional, organism-based; settings: dose 2.5-5 mg/kg, time 18.0 day
# [4] = Toxicity in BALB/C-nu/nu mouse model xenografted with human MIA PaCa-2 cells assessed as signs of discomfort at 2.5 to 5 mg/kg,ip everyday for 18 days; format: organism-based; settings: in vivo, 432 h, dose 2.5-5 mg/kg, time 18 day
# [5] = system: GTPase KRas (Homo sapiens), P01116 [G12C]; test: Inhibition of KRAS G12C mutant in human NCI-H358 cells incubated for 24 hrs by Western blot analysis; format: cell-based; settings: dose <= 5.0 µM
# GTPase KRas (Homo sapiens), P01116 [G12C], sequence (P01116 whole entry G12C): as the sequence (P01116 whole entry G12D, looked up) above, with D12C counted along it
# [6] = system: Quadruplex RNA; test: Inhibition of KRAS RNA G-Quadruplex (unknown origin) translation transfected in HEK293T cells assessed as decrease in relative luciferase activity upto 5 uM incubated for 24 hrs by Dual-luciferase reporter assay; format: cell-based
# [7] = system: GTPase KRas (Homo sapiens), P01116 [G12C]; test: Inhibition of KRAS G12C mutant in human MIA PaCa-2 cells at 2.5 uM by Western blot analysis; format: cell-based; settings: time <= 48.0 hrs, TDE = time-dependent effect
# [8] = system: MIA PaCa-2; test: Induction of apoptosis in human MIA PaCa-2 cells assessed as increase in caspase-3 cleavage by Western blot analysis; format: functional, cell-based; settings: dose 1.25-5 µM
# [9] = Toxicity in BALB/C-nu/nu mouse model xenografted with human MIA PaCa-2 cells assessed as signs of distress at 2.5 to 5 mg/kg,ip everyday for 18 days; format: organism-based; settings: in vivo, 432 h, dose 2.5-5 mg/kg, time 18 day
# [10] = target: Quadruplex DNA; test: Binding affinity to KRAS utr-z G-Quadruplex (unknown origin) assessed as dissociation constant by fluorescence spectroscopy; format: nucleic-acid assay
# [11] = system: MIA PaCa-2; test: Cytotoxicity against human MIA PaCa-2 cells harboring KRAS G12C mutant assessed as cell growth inhibition incubated for 24 hrs by MTT assay; format: functional, cell-based; settings: MIA PaCa-2, 24 h
# [12] = target: GTPase KRas (Homo sapiens) (UniProt P01116); test: Inhibition of KRAS in human MIA PaCa-2 cells assessed as decrease in mTOR phosphorylation incubated for 24 hrs by Western blot analysis; format: cell-based; settings: dose 1.25-5 µM
# GTPase KRas (Homo sapiens), sequence (P01116 whole entry, looked up): as the sequence (P01116 whole entry G12D, looked up) above, with D12G counted along it
# [13] = Toxicity in BALB/C-nu/nu mouse model xenografted with human MIA PaCa-2 cells assessed as body weight change at 2.5 to 5 mg/kg,ip everyday for 18 days; format: organism-based; settings: in vivo, 432 h, dose 2.5-5 mg/kg, time 18 day
# [14] = target: GTPase KRas (Homo sapiens) (UniProt P01116); test: Inhibition of KRAS in human MIA PaCa-2 cells assessed as decrease in AKT phosphorylation incubated for 24 hrs by Western blot analysis; format: cell-based; settings: dose 1.25-5 µM
# [15] = system: PANC-1; test: Cytotoxicity against human PANC-1 cells harboring KRAS G12D mutant assessed as cell growth inhibition incubated for 24 hrs by MTT assay; format: functional, cell-based; settings: PANC-1, 24 h
# [16] = system: Quadruplex RNA; test: Binding affinity to KRAS RNA G-Quadruplex (unknown origin) assessed as melting temperature at 25 uM at 25 to 95 degreeC by CD spectroscopy (reference value: 71.4 degreeC); format: nucleic-acid assay
# [17] = system: Quadruplex DNA; test: Binding affinity to KRAS DNA G-Quadruplex (unknown origin) assessed as melting temperature at 25 uM at 25 to 95 degreeC by CD spectroscopy (reference value: 50.1 degreeC); format: nucleic-acid assay
# [18] = system: NCI-H358; test: Effect on KRAS mRNA level in human NCI-H358 cells harboring KRAS G12C mutant at upto 5 uM incubated upto 48 hrs by RT-qPCR analysis; format: functional, cell-based
# [19] = target: GTPase KRas (Homo sapiens) (UniProt P01116); test: Inhibition of KRAS in human PANC-1 cells at 2.5 uM incubated for 24 hrs by Western blot analysis; format: cell-based
# [20] = system: MIA PaCa-2; test: Effect on total KRAS mRNA level in human MIA PaCa-2 cells xenografted in BALB/C-nu/nu mouse model at 2.5 to 5 mg/kg,ip everyday for 18 days by RT-qPCR analysis; format: functional, organism-based; settings: dose 2.5-5 mg/kg, time 18.0 day
# [21] = system: MIA PaCa-2; test: Antitumor activity against human MIA PaCa-2 cells xenografted in BALB/C-nu/nu mouse model assessed as tumor growth inhibition at 5 mg/kg,ip everyday for 18 days relative to control; format: functional; settings: MIA PaCa-2, 432 h, time 18 day, read-out: TGI
# [22] = target: Quadruplex DNA; test: Binding affinity to SS12 G-Quadruplex (unknown origin) assessed as dissociation constant by fluorescence spectroscopy; format: nucleic-acid assay
# [23] = Cytotoxicity against human LX2 cells harboring wild-type KRAS assessed as cell growth inhibition incubated for 24 hrs by MTT assay; format: toxicity, cell-based, LX-2
# [24] = system: PANC-1; test: Effect on KRAS mRNA level in human PANC-1 cells harboring KRAS G12D mutant at upto 5 uM incubated upto 48 hrs by RT-qPCR analysis; format: functional, cell-based
# [25] = system: NCM460; test: Cytotoxicity against human NCM460 cells harboring wild-type KRAS assessed as cell growth inhibition incubated for 24 hrs by MTT assay; format: functional, cell-based; settings: NCM460, 24 h
# [26] = Toxicity in BALB/C-nu/nu mouse model xenografted with human MIA PaCa-2 cells assessed as toxic sigs in viscera at 2.5 to 5 mg/kg,ip everyday for 18 days; format: organism-based; settings: in vivo, 432 h, dose 2.5-5 mg/kg, time 18 day
# [27] = system: Quadruplex RNA; test: Binding affinity to NRAS RNA G-Quadruplex (unknown origin) assessed as melting temperature at 25 uM at 25 to 95 degreeC by CD spectroscopy (reference value: 82.2 degreeC); format: nucleic-acid assay
# [28] = system: GTPase KRas (Homo sapiens), P01116 [G12C]; test: Inhibition of KRAS G12C mutant in human NCI-H358 cells at 2.5 uM by Western blot analysis; format: cell-based; settings: time <= 48.0 hrs, TDE = time-dependent effect
# [29] = system: HPAF-II; test: Cytotoxicity against human HPAF-II cells harboring KRAS G12D mutant assessed as cell growth inhibition incubated for 24 hrs by MTT assay; format: functional, cell-based
# [30] = Toxicity in BALB/C-nu/nu mouse model xenografted with human MIA PaCa-2 cells assessed as signs of pain at 2.5 to 5 mg/kg,ip everyday for 18 days; format: organism-based; settings: in vivo, 432 h, dose 2.5-5 mg/kg, time 18 day
# [31] = system: MIA PaCa-2; test: Inhibition of cell proliferation of human MIA PaCa-2 cells at 0.32 to 1.25 uM incubated for 10 days by colony formation assay relative to control; format: functional; settings: dose 0.32-1.25 µM, time 10 day
# [32] = target: GTPase KRas (Homo sapiens) (UniProt P01116); test: Inhibition of KRAS in human MIA PaCa-2 cells assessed as decrease in ERK phosphorylation at 2.5 uM by Western blot analysis; format: cell-based; settings: time <= 24.0 hrs, TDE = time-dependent effect
# [33] = Toxicity in BALB/C-nu/nu mouse model xenografted with human MIA PaCa-2 cells assessed as drug tolerance at 2.5 to 5 mg/kg,ip everyday for 18 days; format: organism-based; settings: in vivo, 432 h, dose 2.5-5 mg/kg, time 18 day
# [34] = target: GTPase KRas (Homo sapiens) (UniProt P01116); test: Inhibition of KRAS in human MIA PaCa-2 cells assessed as decrease in MEK phosphorylation at 2.5 uM by Western blot analysis; format: cell-based; settings: time <= 24.0 hrs, TDE = time-dependent effect
# [35] = target: GTPase KRas (Homo sapiens) (UniProt P01116); test: Inhibition of KRAS in human MIA PaCa-2 cells at 2.5 uM incubated for 24 hrs by Western blot analysis; format: cell-based
structure (smiles),measurement,setting,value
CCN(CC)c1ccc2cc(/C=C/c3ccc4cc(F)c(NCCN5CCCC5)cc4[n+]3C)c(=O)oc2c1.[I-],Tm,[1],81.2 °C
same,inhibition,[2],Dose-Dependent Effect
same,Activity,[3],Active
same,Activity,[4],Non-Toxic
same,inhibition,[5],Dose-Dependent Effect
same,inhibition,[6],Active
same,inhibition,[7],Tde
same,Activity,[8],Dose-Dependent Effect
same,Activity,[9],Non-Toxic
same,Kd,[10],2.3 µM
same,IC50,[11],33 µM
same,inhibition,[12],Dose-Dependent Effect
same,Activity,[13],Non-Toxic
same,inhibition,[14],Dose-Dependent Effect
same,IC50,[15],5.6 µM
same,Tm,[16],51.3 °C
same,Tm,[17],52 °C
same,Activity,[18],inactive
same,inhibition,[19],Active
same,Activity,[20],inactive
same,inhibition in vivo at 5 mg/kg,[21],70.3%
same,Kd,[22],> 5 µM
same,IC50 at 24 h,[23],> 40 µM
same,Activity,[24],inactive
same,IC50,[25],> 40 µM
same,Activity,[26],Non-Toxic
same,Tm,[27],78.7 °C
same,inhibition,[28],Tde
same,IC50,[29],5.4 µM
same,Activity,[30],Non-Toxic
same,inhibition (INH),[31],100%
same,inhibition,[32],Tde
same,Activity,[33],Non-Toxic
same,inhibition,[34],Tde
same,inhibition,[35],Active
